Results from the NIST ThermoML archive (doi:10.1021/je700055p).

Assay: relative permittivity at various frequencies (dimensionless)
Conditions: 101.3 kPa, Liquid, Frequency=1 MHz, Coaxial cylinder capacitor

CC#N [acetonitrile]
Conditions | relative permittivity
288.15 K | 37.52
293.15 K | 36.62
298.15 K | 35.88
303.15 K | 35.15
308.15 K | 34.45
313.15 K | 33.75
318.15 K | 33.01
323.15 K | 32.36
328.15 K | 31.62
333.15 K | 31.05
